Patent US8557816B2, “Aurora kinase modulators and method of use” (Amgen Inc., priority 2007, dated 2013)

Legend:
AuroraB = target: T1, AuroraB (Homo sapiens, UniProt Q96GD4); experiment: AuroraB Homogeneous Time Resolved Fluorescent (HTRF) kinase assay; assay type: biochemical; conditions: average; read-out: AurB_IC50_IP (uM Avg)
T1 construct: 20 μL of AuroraB FL H is for a final volume of 41 μL; His
How it was run: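 Read-out is time-resolved FRET between europium anti-phospho-H3 antibody and streptavidin-APC, added in EDTA buffer to stop the reaction and equilibrated about 60 min (ex 320, em 615 and 655 nm). Preceding reaction: ~90 min, full-length enzyme, ATP, 0.1 μM biotin-Histone H3 substrate, Mg/Mn HEPES buffer pH 7.5.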

AuroraA-TPX2 = target: T2, AuroraA-TPX2 (Homo sapiens, UniProt O14965); experiment: AuroraA-TPX2 Homogeneous Time Resolved Fluorescent (HTRF) kinase assay; assay type: biochemical; conditions: average; read-out: AurA_IC50_IP (uM Avg)
T2 construct: 20 μL of AuroraA-TPX2 KD GST for a final volume of about 41 μL; GST
T2 sequence (O14965 133-383 limits assumed): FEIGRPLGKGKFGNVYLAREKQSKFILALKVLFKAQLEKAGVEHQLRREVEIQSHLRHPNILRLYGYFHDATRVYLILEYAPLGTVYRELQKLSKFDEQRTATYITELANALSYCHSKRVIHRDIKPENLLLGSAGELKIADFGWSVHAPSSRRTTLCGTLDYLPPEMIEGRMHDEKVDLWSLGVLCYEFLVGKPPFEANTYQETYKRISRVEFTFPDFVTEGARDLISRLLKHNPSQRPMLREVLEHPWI
T2 sequence (Q9ULW0 1-43 partner limits assumed): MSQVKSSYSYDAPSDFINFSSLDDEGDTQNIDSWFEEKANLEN
How it was run: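 HTRF read-out (Eu 615 nm to APC 655 nm) of phosphorylated biotin-PLK, detected with 0.02 nM europium anti-phosphoPLK antibody and 0.0005 mg/mL SA-APC after overnight equilibration.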

T1 sequence (Q96GD4 whole entry): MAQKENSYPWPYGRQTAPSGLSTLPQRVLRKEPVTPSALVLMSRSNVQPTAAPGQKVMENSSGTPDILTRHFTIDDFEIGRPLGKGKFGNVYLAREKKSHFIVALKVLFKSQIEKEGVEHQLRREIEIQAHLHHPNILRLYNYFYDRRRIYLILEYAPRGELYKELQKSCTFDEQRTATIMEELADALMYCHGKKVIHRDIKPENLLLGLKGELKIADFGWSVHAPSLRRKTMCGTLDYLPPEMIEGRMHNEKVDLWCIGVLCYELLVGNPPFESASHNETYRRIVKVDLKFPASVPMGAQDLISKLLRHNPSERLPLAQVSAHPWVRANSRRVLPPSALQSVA

Row | IC50 (AuroraB) | IC50 (AuroraA-TPX2) | Compound
1 | 0.009 µM | 0.027 µM | COc1cnc2c(Sc3ccc(Nc4nnc(-c5ccc6cn(C)nc6c5)c5ccccc45)cc3)ccnc2c1 [compound 502]
2 | 0.007 µM | 0.02 µM | COc1cnc2c(Sc3ccc(Nc4nnc(N5CCN(C)CC5)c5ccccc45)cc3)ccnc2c1 [compound 503]
3 | 0.032 µM | 0.017 µM | COc1cnc2c(Sc3ccc(Nc4nnc(-c5ccc6nonc6c5)c5ccccc45)cc3)ccnc2c1 [compound 504]
4 | 0.014 µM | 0.016 µM | CCOc1nc(-c2nnc(Nc3ccc(Sc4ccnc5cc(OC)cnc45)cc3)c3ccccc23)cs1 [compound 505]
5 | 0.089 µM | 0.748 µM | COc1cnc2c(Sc3ccc(Nc4nnc(-c5cscn5)c5ccccc45)cc3)ccnc2c1 [compound 506]
6 | 0.042 µM | 0.152 µM | COc1cnc2c(Sc3ccc(Nc4nnc(N5CCN(CC(F)F)CC5)c5ccccc45)cc3)ccnc2c1 [compound 507]
7 | 0.009 µM | 0.082 µM | COc1cnc2c(Sc3ccc(Nc4nnc(NCCCSC)c5ccccc45)cc3)ccnc2c1 [compound 508]
8 | 0.013 µM | 0.317 µM | COc1ccc(-c2nnc(Nc3ccc(Sc4ccnc5cccnc45)cc3)c3ccccc23)cn1 [compound 509]
9 | 0.05 µM | 0.32 µM | Cc1csc(-c2nnc(Nc3ccc(Oc4ccnc5cccnc45)cc3)c3cc(F)c(F)cc23)c1 [compound 510]
10 | 0.069 µM | 0.585 µM | COc1cnc2c(Sc3ccc(Nc4nnc(OC(C)C)c5ccccc45)cc3)ccnc2c1 [compound 511]
11 | 0.12 µM | 0.501 µM | CCOc1nnc(Nc2ccc(Sc3ccnc4cc(OC)cnc34)cc2)c2ccccc12 [compound 512]
12 | 0.03 µM | 0.231 µM | COc1cnc2c(Sc3ccc(Nc4nnc(OCC(F)(F)F)c5ccccc45)cc3)ccnc2c1 [compound 513]
13 | 0.01 µM | 0.189 µM | COc1cnc2c(Sc3ccc(Nc4nnc(SC)c5ccccc45)cc3)ccnc2c1 [compound 514]
14 | 0.012 µM | 0.072 µM | COCCOc1nnc(Nc2ccc(Sc3ccnc4cc(OC)cnc34)cc2)c2ccccc12 [compound 515]
15 | 0.068 µM | 0.088 µM | COc1cnc2c(Sc3ccc(Nc4nnc(-c5cccc(Cl)c5)c5ccccc45)cc3)ccnc2c1 [compound 516]
16 | 0.017 µM | 0.15 µM | c1ccc2c(Sc3ccc(Nc4nnc(-c5ccc6c(c5)OCO6)c5ccccc45)cc3)ccnc2c1 [compound 517]
17 | 0.01 µM | 0.218 µM | Clc1cccc(-c2nnc(Nc3ccc(Sc4ccnc5ccsc45)cc3)c3ccccc23)c1 [compound 518]
18 | 0.053 µM | 0.083 µM | COc1cnc2c(Sc3ccc(Nc4nnc(-c5ccccc5)c5ccccc45)cc3F)ccnc2c1 [compound 519]
19 | 0.025 µM | 0.112 µM | COc1cnc2c(Sc3ccc(Nc4nnc(N5CCCC5)c5ccccc45)cc3)ccnc2c1 [compound 521]
20 | 0.022 µM | 0.009 µM | COc1cnc2c(Sc3ccc(Nc4nnc(-c5ccc6c(c5)OCO6)c5ccccc45)cc3F)ccnc2c1 [compound 522]
21 | 0.144 µM | 0.036 µM | COc1cnc2c(Sc3ccc(Nc4nnc(N5CCC(C(F)(F)F)CC5)c5ccccc45)cc3)ccnc2c1 [compound 523]
22 | 0.099 µM | 0.093 µM | CCCN(C)c1nnc(Nc2ccc(Sc3ccnc4cc(OC)cnc34)cc2)c2ccccc12 [compound 524]
23 | 0.028 µM | 0.013 µM | COc1cnc2c(Oc3ccc(Nc4nnc(-c5ccc(C)c(OC)c5)c5ccccc45)cc3)ccnc2c1 [compound 525]

Row | IC50 (AuroraB) | IC50 (AuroraA-TPX2) | Compound
24 | 0.138 µM | 0.036 µM | COc1cnc2c(Sc3ccc(Nc4nnc(N5CCC(Cl)CC5)c5ccccc45)cc3)ccnc2c1 [compound 527]
25 | 0.293 µM | 0.064 µM | COc1cnc2c(Sc3ccc(Nc4nnc(-c5cc(C)cs5)c5ccccc45)cc3F)ccnc2c1 [compound 528]
26 | 0.037 µM | 0.02 µM | COc1cnc2c(Sc3ccc(Nc4nnc(-c5ccc(C)c(OC)c5)c5ccccc45)cc3)ccnc2c1 [compound 529]
27 | 0.014 µM | 0.014 µM | COc1cnc2c(Sc3ccc(Nc4nnc(-c5ccc6c(c5)OCO6)c5ccccc45)cc3)ccnc2c1 [compound 530]
28 | 0.024 µM | 0.089 µM | COc1cnc2c(Sc3ccc(Nc4nnc(N5CCC(F)(F)CC5)c5ccccc45)cc3)ccnc2c1 [compound 531]
29 | 0.019 µM | 0.061 µM | COc1cnc2c(Sc3ccc(Nc4nnc(N5CCC[C@@H](OC)C5)c5ccccc45)cc3)ccnc2c1 [compound 532]
30 | 0.03 µM | 0.045 µM | COCCNc1nnc(Nc2ccc(Sc3ccnc4cc(OC)cnc34)cc2)c2ccccc12 [compound 533]
31 | 0.02 µM | 0.035 µM | COC1CCN(c2nnc(Nc3ccc(Sc4ccnc5cc(C#N)ccc45)cc3)c3ccccc23)CC1 [compound 534]
32 | 0.02 µM | 0.022 µM | COCCCNc1nnc(Nc2ccc(Sc3ccnc4cc(OC)cnc34)cc2)c2ccccc12 [compound 535]
33 | 0.031 µM | 0.812 µM | COc1cnc2c(Sc3ccc(Nc4nnc(Cl)c5ccccc45)cc3)ccnc2c1 [compound 536]
34 | 0.111 µM | 0.198 µM | COc1cnc2c(Sc3ccc(Nc4nnc(NCCc5ccccn5)c5ccccc45)cc3)ccnc2c1 [compound 537]
35 | 0.045 µM | 3.43 µM | COc1cnc2c(Sc3ccc(Nc4nnc(N5CCC(N6CCCC6)CC5)c5ccccc45)cc3)ccnc2c1 [compound 538]
36 | 0.02 µM | 0.133 µM | COc1cnc2c(Oc3ccc(Nc4nnc(-c5cc(F)cc(F)c5)c5ccccc45)cc3)ccnc2c1 [compound 539]
37 | 0.025 µM | 0.393 µM | COc1cnc2c(Sc3ccc(Nc4nnc(C5CC5)c5ccccc45)cc3)ccnc2c1 [compound 541]
38 | 0.041 µM | 0.319 µM | COc1cnc2c(Oc3ccc(Nc4nncc5ccccc45)cc3)ccnc2c1 [compound 542, N-(4-((7-methoxy-1,5-naphthyridin-4-yl)oxy)phenyl)-1-phthalazinamine]
39 | 0.044 µM | 0.581 µM | COc1cnc2c(Oc3ccc(Nc4nnc(C5CC5)c5ccccc45)cc3)ccnc2c1 [compound 543]
40 | 0.02 µM | 0.085 µM | COc1cnc2c(Oc3ccc(Nc4nnc(-c5ccc(C)c(N)c5)c5cc(F)c(F)cc45)cc3)ccnc2c1 [compound 545]
41 | 0.135 µM | 0.723 µM | COc1cnc2c(Oc3ccc(Nc4nnc(-c5ccccc5Cl)c5ccccc45)cc3)ccnc2c1 [compound 546]
42 | 0.02 µM | 0.335 µM | COc1cnc2c(Sc3ccc(Nc4nncc5ccccc45)cc3)ccnc2c1 [compound 547, N-(4-((7-methoxy-1,5-naphthyridin-4-yl)sulfanyl)phenyl)-1-phthalazinamine]
43 | 0.031 µM | 0.27 µM | COc1ccc2nccc(Sc3ccc(Nc4nnc(N5CCCCC5)c5ccccc45)cc3)c2n1 [compound 548]
44 | 0.064 µM | 0.098 µM | COc1ccc2nccc(Sc3ccc(Nc4nnc(-c5cc(C)cs5)c5ccccc45)cc3)c2n1 [compound 549]
45 | 0.022 µM | 0.107 µM | COc1ccc2nccc(Sc3ccc(Nc4nnc(-c5ccc(Cl)cn5)c5ccccc45)cc3)c2n1 [compound 550]
